From PMC9681820, “A PDE10A inhibitor CPL500036 is a novel agent modulating striatal function devoid of most neuroleptic side-effects” (Frontiers in Pharmacology, 2022)
pIC50: −log10 of the molar value. Read-outs that look alike come from different tables or passages of the source.

Key:
[1] = system: Escherichia coli WP2 uvrA; assay: Ames test; details: CPL500036 5000µg/plate, n=3
[2] = system: Salmonella typhimurium TA100; details: CPL500036 5000µg/plate, n=3
[3] = system: Salmonella typhimurium TA1535; details: CPL500036 5000µg/plate, n=3
[4] = system: Salmonella typhimurium TA98; assay: Ames test; details: CPL500036 5000µg/plate, n=3
[5] = system: Salmonella typhimurium TA1537; assay: Ames test; details: CPL500036 5000µg/plate, n=3
[6] = system: cardiac 3D spheroids (cardiomyocytes and fibroblasts derived from human pluripotent cells); assay: Cardiotoxicity in spontaneously beating cardiac 3D spheroids; type: cell-based; details: 3D cardiac spheroids; for AC50: Homo sapiens
Experimental: The cardiotoxic effect of CPL500036 was evaluated in spontaneously beating cardiac 3D spheroids (comprising cardiomyocytes and fibroblasts derived from human pluripotent cells) by Cyprotex (Cheshire, United Kingdom). Experiments were carried out in accordance with the service-provider’s protocol. Specific parameters of cell health were assessed: number and size of spheroids, DNA structure, intracellular level of calcium ions, mitochondrial mass, membrane potential and cellular ATP. […] During the 14 days of the experiment, redosing occurred on three occasions. Spheroid hypertrophy was measured on days 3, 7, 10, and 14 using the “brightfield live cellular imaging” mode of a Cellomics ArrayScan® XTI system (Thermo Scientific, Waltham, MA, United States). On day-14, the spheroid model was analyzed using the confocal mode of Cellomics ArrayScan XTI following incorporation of appropriate fluorescent dyes. Subsequently, cellular ATP content was measured using CellTiterGlo® (Promega, Fitchburg, WI, United States). Mitomicyn C and dasatinib were used as positive controls (Supplementary Table S1).
concentration at which 50% maximum effect is observed for each cell health parameter; NR - No response observed.

[7] = system: Sprague–Dawley rats; assay: Hyperprolactinemia: plasma prolactin before and 2 h after administration; type: in vivo; details: 3 mg/kg, p.o., n = 4
Experimental: Four male Sprague–Dawley rats (∼10 weeks; Mossakowski Medical Research Institute, Polish Academy of Sciences, Warsaw, Poland), underwent gavage with CPL500036 (3 mg/kg), haloperidol (3 mg/kg; as a positive control) or vehicle. Rats were fasted for 16 h before administration. Blood samples from the tail vein were collected immediately before and 2 h after administration. Plasma was obtained by centrifugation (1,600 × g, 20 min, 4°C) of blood samples collected on K2EDTA, and was stored at −80°C until analyses. The prolactin concentration in plasma samples was determined using the Prolactin (rat) EIA kit (Bertin Rockville, MD, United States) according to the manufacturer’s protocol. The prolactin concentration difference was assessed as follows: %∆prolactin=cprolactin, 2h−cprolactin, 0h/[…] (1)

[8] = parameters: method as in ref Megens A. A. H. P. et al., 2014; Suzuki et al., 2015; Arakawa et al., 2016; details: compared with marketed antipsychotics; ref Megens A. A. H. P. et al., 2014; Suzuki et al., 2015; Arakawa et al., 2016; cited from earlier work
[9] = target: PDE10A (Homo sapiens, UniProt Q9Y233); parameters: method as in ref Schmidt et al., 2008; Grauer et al., 2009; Harada et al., 2015; details: ref Schmidt et al., 2008; Grauer et al., 2009; Harada et al., 2015; read-out: IC50 against PDE10A; cited from earlier work
Chain of PDE10A (Q9Y233 whole entry, species assumed): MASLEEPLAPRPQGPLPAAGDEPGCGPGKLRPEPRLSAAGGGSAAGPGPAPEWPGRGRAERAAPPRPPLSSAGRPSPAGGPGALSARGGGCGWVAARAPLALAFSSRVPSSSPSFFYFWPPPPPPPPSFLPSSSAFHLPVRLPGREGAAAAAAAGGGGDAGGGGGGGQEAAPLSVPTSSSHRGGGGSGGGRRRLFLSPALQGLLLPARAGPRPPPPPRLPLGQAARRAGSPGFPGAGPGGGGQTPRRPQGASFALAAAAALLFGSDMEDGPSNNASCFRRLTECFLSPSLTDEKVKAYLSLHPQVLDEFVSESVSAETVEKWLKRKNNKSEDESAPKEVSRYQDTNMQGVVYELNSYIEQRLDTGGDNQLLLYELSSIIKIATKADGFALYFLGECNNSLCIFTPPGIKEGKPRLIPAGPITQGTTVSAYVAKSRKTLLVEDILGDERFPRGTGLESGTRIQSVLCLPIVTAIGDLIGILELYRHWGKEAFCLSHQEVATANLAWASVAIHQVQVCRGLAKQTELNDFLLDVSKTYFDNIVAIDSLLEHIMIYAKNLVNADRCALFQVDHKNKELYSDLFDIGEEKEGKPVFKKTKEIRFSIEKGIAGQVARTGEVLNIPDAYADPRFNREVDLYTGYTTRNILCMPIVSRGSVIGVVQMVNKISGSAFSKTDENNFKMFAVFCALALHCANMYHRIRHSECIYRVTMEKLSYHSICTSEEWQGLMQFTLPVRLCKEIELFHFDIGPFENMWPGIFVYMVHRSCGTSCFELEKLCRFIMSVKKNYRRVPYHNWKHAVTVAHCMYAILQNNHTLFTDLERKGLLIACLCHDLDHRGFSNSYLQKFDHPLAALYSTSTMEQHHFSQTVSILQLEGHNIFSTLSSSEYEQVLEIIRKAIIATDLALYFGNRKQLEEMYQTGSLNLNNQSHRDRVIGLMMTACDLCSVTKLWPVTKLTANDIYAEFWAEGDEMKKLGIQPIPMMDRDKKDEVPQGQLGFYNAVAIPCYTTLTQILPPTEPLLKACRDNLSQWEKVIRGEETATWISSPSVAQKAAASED

[10] = With metabolic activation (+S9 mix), 2AA 2µg/plate
[11] = Without metabolic activation (-S9 mix), 9AA 50µg/plate
[12] = read-out: Mitochondrial mass AC50
[13] = read-out: Mitochondrial membrane potential AC50
[14] = Without metabolic activation (-S9 mix), NPD 4µg/plate
[15] = Without metabolic activation (-S9 mix), SAZ 2µg/plate

Compound: Nc1ccc2cc3ccccc3cc2c1 [2AA, 2-aminoanthracene, reference compound]
- Mutation rate [1, 10]: 8.49
- Revertants Mean±SD [1, 10]: 203.7±3.79
- Mutation rate [2, 10]: 19.26
- Revertants Mean±SD [2, 10]: 1464.0±361.88
- Mutation rate [3, 10]: 11.38
- Revertants Mean±SD [3, 10]: 159.3±15.57
- Mutation rate [4, 10]: 84.13
- Revertants Mean±SD [4, 10]: 1682.7±156.02
- Mutation rate [5, 10]: 9.0
- Revertants Mean±SD [5, 10]: 78.0±7.94

Compound: Nc1c2ccccc2nc2ccccc12 [9AA, 9-Aminoacridine, reference compound]
- Mutation rate [5, 11]: 50.65
- Revertants Mean±SD [5, 11]: 287.0±65.60

Compound: Cc1nc(Nc2ncc(C(=O)Nc3c(C)cccc3Cl)s2)cc(N2CCN(CCO)CC2)n1 [Dasatinib]
- Calcium MEC [6]: 43.0 µM
- Cellular ATP MEC [6]: 0.075 µM
- DNA structure MEC [6]: 2.92 µM
- Mitochondrial mass MEC [6]: 2.43 µM
- Mitochondrial membrane potential MEC [6]: 16.82 µM
- Spheroid size MEC [6]: 0.469 µM
- AC50 ([6]; read-out: Calcium AC50): > 50 µM
- AC50 ([6]; read-out: Cellular ATP AC50): 0.374 µM
- AC50 ([6]; read-out: DNA structure AC50): > 50 µM
- AC50 [6, 12]: > 5 µM
- AC50 [6, 13]: 26.4 µM
- AC50 ([6]; read-out: Spheroid count AC50): > 50 µM
- AC50 ([6]; read-out: Spheroid size AC50): 23.4 µM

Compound: O=C(CCCN1CCC(O)(c2ccc(Cl)cc2)CC1)c1ccc(F)cc1 [Haloperidol]
- prolactin release (relative change in the prolactin level before and 2 h after administration) [7]: induced significant prolactin release

Compound: COCCc1ccc(-c2c(C)nc3c(N4CCOCC4)nccn23)cn1 [JNJ-42314,415]
- cataleptic effect [8]: weaker than that for marketed antipsychotics and did not increase with increasing dose

Compound: COS(C)(=O)=O [MMS, Methyl methanesulfonate, reference compound]
- Mutation rate ([1]; Without metabolic activation (-S9 mix), MMS 2µg/plate): 33.85

Compound: CO[C@@]12[C@H](COC(N)=O)C3=C(C(=O)C(C)=C(N)C3=O)N1C[C@@H]1N[C@@H]12 [Mitomycin C]
- Calcium MEC [6]: 79.1 µM
- Cellular ATP MEC [6]: 0.243 µM
- DNA structure MEC [6]: 0.704 µM
- Mitochondrial mass MEC [6]: < 0.04 µM
- Mitochondrial membrane potential MEC [6]: 1.89 µM
- Spheroid count MEC [6]: 2 µM
- Spheroid size MEC [6]: 2.97 µM
- AC50 ([6]; read-out: Calcium AC50): > 100 µM
- AC50 ([6]; read-out: Cellular ATP AC50): 0.766 µM
- AC50 ([6]; read-out: DNA structure AC50): 4.41 µM
- AC50 [6, 12]: 0.731 µM
- AC50 [6, 13]: 3.88 µM
- AC50 ([6]; read-out: Spheroid size AC50): > 100 µM

Compound: Nc1ccc([N+](=O)[O-])cc1N [NPD, 4-Nitro-1,2-phenylenediamine, reference compound]
- Mutation rate [4, 14]: 18.6
- Revertants Mean±SD [4, 14]: 335.0±57.51

Compound: Cc1ncc(C)n2nc(/C=C/c3nc(N4CCCC4)cc(N4CCOCC4)n3)nc12 [PDM-042, (E )-4-(2-(2-(5,8-dimethyl-[1,2, 4]triazolo[1,5-a]pyrazin-2-yl)vinyl)-6-(pyrrolidin-1-yl)pyrimidin-4-yl)morpholine]
- cataleptic effect [8]: weaker than that for marketed antipsychotics and did not increase with increasing dose

Compound: [N-]=[N+]=[N-].[Na+] [SAZ, Sodium Azide, reference compound]
- Mutation rate [2, 15]: 12.76
- Revertants Mean±SD [2, 15]: 1093.0±64.66
- Mutation rate [3, 15]: 74.21
- Revertants Mean±SD [3, 15]: 940.0±91.95

Compound: COc1cn(-c2ccc(-n3cccn3)cc2F)nc(-c2ccnn2-c2ccccc2)c1=O [TAK-063]
- cataleptic effect [8]: weaker than that for marketed antipsychotics and did not increase with increasing dose

Compound: FC(F)(F)Cn1cc(-c2ccncc2)c(-c2ccc(OCc3ccc4ccccc4n3)cc2)n1 [TP-10]
- pIC50 [9]: 9.52
